In patent US11833116B2 (TCI CO., LTD., priority 2020, dated 2023):

Tests used:
[1] = test system: FOXO gene; assay: Antiaging-related gene expression in PBMC cells (qRT-PCR): FOXO; assay type: cell-based, human; details: 0.25 vol %, 24 hours, control group = 1.00
From the text: (§1) Herein, the tested antiaging-related genes are antiaging genes including CCT5 gene (Gene ID: 22948), CCT6A gene (Gene ID: 908), CCT7 gene (Gene ID: 10574), CCT8 gene (Gene ID: 10694), PARP2 gene (Gene ID: 10038), Parkin gene (Gene ID: 5071), Atg1 gene (Gene ID: 8408), Arg8 gene (Gene ID: 11345), FOX) gene (Gene ID: 2308), SIRT1 gene (Gene ID: 23411), […] gene (Gene ID: 55191), and MRPS3 gene (Gene ID: 64969). A medium used was an X-VIVOTM 15 serum-free hematopoietic cell medium (manufacturer: Lonza; product No.: 04-[…]) supplemented with 10 vol % of fetal bovine serum (FBS; brand: Gibco) and 1 vol % of penicillin/streptomycin (brand: Gibco), hereinafter referred to as a cell medium. […] Then, by using an ABI StepOnePlusTM Real-Time PCR system (Thermo Fisher Scientific Company, USA), KAPA SYBR FAST (purchased from Sigma Company, USA, No. 38220000000) and primers of Table 1 (SEQ ID NO: 1 to SEQ ID NO: 24), a quantitative real-time reverse transcription polymerase chain reaction was performed on the cDNA of each group to observe the expression levels of antiaging-related genes in PBMC cells. […] Herein, the quantitative real-time reverse transcription polymerase chain reaction of the cDNA can indirectly quantify an mRNA expression level of a gene, and then infer the expression level of protein encoded by the gene. […]

[2] = test system: mouse brain neuroblastoma cells (Neuro2a); assay: Inhibition of ROS generation (hydrogen peroxide treatment), DCFH-DA flow cytometry; assay type: cell-based
Method: A medium used was a DMEM medium (Dulbecco's Modified Eagle Medium; brand: Gibco) supplemented with 10 vol % of fetal bovine serum (FBS; brand: Gibco) and 1 vol % of penicillin/streptomycin (brand: Gibco), hereinafter referred to as a cell medium. A DCFH-DA solution used was a reaction solution prepared by dissolving 2,7-dichloro-dihydro-fluorescein diacetate (DCFH-DA, product code SI-D6883, purchased from Sigma) in dimethyl sulfoxide (DMSO, purchased from Sigma, product code SI-D6883-50MG). […]
Flow cytometry (manufacturer: Beckman; Catalog No. 660519) was used to detect a fluorescence signal of DCFH-DA in the cell solutions to be assayed in each group. The excitation wavelength of fluorescence detection used was 450 nm to 490 nm, and the emission wavelength was 510 nm to 550 nm. Since DCFH-DA will first be hydrolyzed to DCFH (dichloro-dihydro-fluorescein) after entering the Neuro2a cells, and then oxidized by reactive oxygen species (ROS) into DCF (dichloro-fluorescein) that emits green fluorescence, the fluorescence intensity of the Neuro2a cells treated with the DCFH-DA can reflect the content of reactive oxygen species (ROS) in the Neuro2a cells, and from this, the ratio of the number of cells with highly expressed reactive oxygen species (ROS) in the Neuro2a cells to the number of original cells can be known.

[3] = test system: mouse brain neuroblastoma cells (Neuro2a); assay: Mitochondrial activity (JC-1 mitochondrial membrane potential, flow cytometry); assay type: cell-based; details: 0.25 vol %, 24 hours, control group = 100%
From the text: A medium used was a DMEM medium (Dulbecco's Modified Eagle Medium; brand: Gibco) supplemented with 10 vol % of fetal bovine serum (FBS; brand: Gibco) and 1 vol % of penicillin/streptomycin (brand: Gibco), hereinafter referred to as a cell medium. A mitochondrial activity test method used was to use a mitochondrial membrane potential detection kit (BD™ MitoScreen (JC-1) kit, model 551302) to measure the mitochondrial membrane potential and perform mitochondrial activity analysis. The mitochondrial membrane potential detection kit included a JC-1 stain (freeze-dried) and a 10×assay buffer. Before use, the 10×assay buffer was diluted 10 times with 1×PBS to form a 1×assay buffer. 130 μL of DMSO was added to the JC-1 stain (freeze-dried) to form a JC-1 stock solution. Then, the JC-1 stock solution was diluted with the 1×assay buffer to form a JC-1 working solution (JC-1 mitochondrial specific stain). The dilution ratio of the JC-1 stock solution to the 1×assay buffer was 1:100.
First, 1×10^5 mouse neuroblastoma cells (ATCC CCL-131; hereinafter referred to as Neuro2a cells) were added into a six-well cell culture plate containing 2 mL of the above cell medium per well, and cultured at 37° C. for 24 hours. […]

[4] = test system: MRPS5 gene; assay: Antiaging-related gene expression in PBMC cells (qRT-PCR): MRPS5; assay type: cell-based, human; details: 0.25 vol %, 24 hours, control group = 1.00
From the text: as §1

[5] = test system: CCT8 gene; assay: Antiaging-related gene expression in PBMC cells (qRT-PCR): CCT8; assay type: cell-based, human; details: 0.25 vol %, 24 hours, control group = 1.00
From the text: as §1

[6] = test system: NADSYN gene; assay: Antiaging-related gene expression in PBMC cells (qRT-PCR): NADSYN; assay type: cell-based, human; details: 0.25 vol %, 24 hours, control group = 1.00
From the text: as §1

[7] = test system: CCT7 gene; assay: Antiaging-related gene expression in PBMC cells (qRT-PCR): CCT7; assay type: cell-based, human; details: 0.25 vol %, 24 hours, control group = 1.00
From the text: as §1

[8] = test system: CCT5 gene; assay: Antiaging-related gene expression in PBMC cells (qRT-PCR): CCT5; assay type: cell-based, human; details: 0.25 vol %, 24 hours, control group = 1.00
From the text: as §1

[9] = test system: PARP2 gene; assay: Antiaging-related gene expression in PBMC cells (qRT-PCR): PARP2; assay type: cell-based, human; details: 0.25 vol %, 24 hours, control group = 1.00
From the text: as §1

[10] = test system: CCT6A gene; assay: Antiaging-related gene expression in PBMC cells (qRT-PCR): CCT6A; assay type: cell-based, human; details: 0.25 vol %, 24 hours, control group = 1.00
From the text: as §1

[11] = test system: Atg1 gene; assay: Antiaging-related gene expression in PBMC cells (qRT-PCR): Atg1; assay type: cell-based, human; details: 0.25 vol %, 24 hours, control group = 1.00
From the text: as §1

[12] = test system: Parkin gene; assay: Antiaging-related gene expression in PBMC cells (qRT-PCR): Parkin; assay type: cell-based, human; details: 0.25 vol %, 24 hours, control group = 1.00
From the text: Herein, the tested antiaging-related genes are antiaging genes including CCT5 gene (Gene ID: 22948), CCT6A gene (Gene ID: 908), CCT7 gene (Gene ID: 10574), CCT8 gene (Gene ID: 10694), PARP2 gene (Gene ID: 10038), Parkin gene (Gene ID: 5071), Atg1 gene (Gene ID: 8408), Arg8 gene (Gene ID: 11345), FOX) gene (Gene ID: 2308), SIRT1 gene (Gene ID: 23411), NADSYN gene (Gene ID: 55191), and MRPS3 gene (Gene ID: 64969).
A medium used was an X-VIVO™ 15 serum-free hematopoietic cell medium (manufacturer: Lonza; product No.: 04-418Q) supplemented with 10 vol % of fetal bovine serum (FBS; brand: Gibco) and 1 vol % of penicillin/streptomycin (brand: Gibco), hereinafter referred to as a cell medium. […]
PBMC cells were collected from each group, and RNA of each group was extracted with an RNA extraction reagent kit (purchased from Geneaid, Taiwan, China, Lot No. FC24015-G). […] Then, by using an ABI StepOnePlus™ Real-Time PCR system (Thermo Fisher Scientific Company, USA), KAPA SYBR FAST (purchased from Sigma Company, USA, No. 38220000000) and primers of Table 1 (SEQ ID NO: 1 to SEQ ID NO: 24), a quantitative real-time reverse transcription polymerase chain reaction was performed on the cDNA of each group to observe the expression levels of antiaging-related genes in PBMC cells. […]

[13] = test system: Atg8 gene; assay: Antiaging-related gene expression in PBMC cells (qRT-PCR): Atg8; assay type: cell-based, human; details: 0.25 vol %, 24 hours, control group = 1.00
From the text: as §1

[14] = test system: SIRT1 gene; assay: Antiaging-related gene expression in PBMC cells (qRT-PCR): SIRT1; assay type: cell-based, human; details: 0.25 vol %, 24 hours, control group = 1.00
From the text: as §1

## NC(=O)c1ccc[n+]([C@@H]2O[C@H](COP(=O)([O-])O)[C@@H](O)[C@H]2O)c1 [nicotinamide mononucleotide]
[1]
  relative expression of the FOXO gene: 0.79
[2]; 24 h with 0.25 vol % yeast powder or 10 μL of 200 mM synthetic NMN, then hydrogen peroxide 1 hour, blank group = 100%, H2O2 control group 487.6%
  relative ROS production: 452.5%
[2]; hydrogen peroxide, versus control group 487.6%
  decrease in relative ROS production versus H2O2 control (percentage points, blank = 100%): 35.1%
[3]
  relative JC-1 accumulation: 42.93%
[4]
  relative expression of the MRPS5 gene: 0.80
[5]
  relative expression of the CCT8 gene: 1.72
[6]
  relative expression of the NADSYN gene: 5.84
[7]
  relative expression of the CCT7 gene: 1.0672
[8]
  relative expression of the CCT5 gene: 1.55
[9]
  relative expression of the PARP2 gene: 0.67
[10]
  relative expression of the CCT6A gene: 1.62
[11]
  relative expression of the Atg1 gene: 1.25
[12]
  relative expression of the Parkin gene: 1.61
[13]
  relative expression of the Atg8 gene: 1.02
[14]
  relative expression of the SIRT1 gene: 4.30
